Results on 4 compounds are retold here after patent publication US7951800B2, “Anti-infective agents” (Abbott Laboratories, Inc., priority 2006, dated 2011).

SMILES strings stand for the structures.

The test system of data set [1] is HCV 1b-N replicon cells. As to the kind of experiment: passage of HCV 1b-N replicon cells with compounds alone or in combination, absence of neomycin. The format is cell-based. Particulars: individual compounds or agents at 10 to 20-fold above their respective EC50. As for the experimental part: The effect of compound I on HCV replicon was evaluated alone or in combination with other anti-HCV agents. […] The EC50 values represent the 50% inhibitory concentrations of these compounds/agents in replicon cell assays.

The nature of data set [2]: liver concentrations after oral dosing in rats. The format is in vivo, Male Sprague-Dawley derived rats. As to conditions: rat; for concentration at 1 h / concentration at 12 h / concentration at 24 h: male, Sprague-Dawley, liver, 5 mg/kg oral; for EC50 multiple: ratio of post 24-hour liver concentration over EC50 value: EC50 from HCV replicon assays. As to the method:
Compounds I, II and III were prepared as a solution in a DMSO: PEG-400 vehicle at a concentration of 5 mg/mL shortly before oral dosing. Male Sprague-Dawley derived rats, weighing 250-350 grams, were obtained from Charles River Laboratories, Inc. (Wilmington, Mass.). The animals were fasted overnight prior to dosing and throughout the study period, but were allowed water ad libitum. Animals were allowed chow ad libitum post 12 hr. Each study used a group of 3 rats. Each rat received a 5 mg/kg (1 mL/kg) oral dose of compound I, II or III administered by gavage. At selected time points after dosing, groups of three rats were euthanized with CO2 and exsanguinated by cardiac puncture. The entire liver tissue from each animal was removed and placed in a labeled plastic container. Groups of rats were sacrificed 1, 12 and 24 hours after drug administration. The liver samples were stored on ice (about 4° C.), and then assayed for the concentration of each compound using high performance liquid chromatographic procedures.
For orientation: In antiviral work, replicon cells carry a viral genome segment that copies itself.

Data set [3] has as its system HCV replicon. Nature of the data set: HCV replicon assays. The format is cell-based. As for the experimental part:
The 50% inhibitory concentration of an HCV inhibitor (EC50) can also be evaluated using HCV replicon assays as described in Ikeda et al., J. VIROL., 76:2997-3006 (2002), and Blight et al., SCIENCE, 290:1972-1974 (2000), with the following modifications. Replicon cells are plated at 3×10^3 cells per well in 96-well plate in DMEM medium containing 5% fetal calf serum. At day 1, culture medium is removed and replaced with fresh medium containing eight serial 2-fold dilutions of the compound of interest. The final concentration of DMSO in medium is 0.5%. The untreated control culture is treated in an identical manner except no inhibitor is added to the medium. Plates are incubated in a CO2 incubator at 37° C. On Day 4, 100 μl lysis buffer (RTL) (Qiagen) is added to each well after removal of culture medium. RNA is purified according to manufacturer's recommendations (Qiagen RNAeasy) and eluted in 200 μl of water. The HCV RNA level is quantified from a portion (5 μl out of 200 μl) of the purified RNA by real-time RT-PCR method. The primers and probe are derived from specific sequence in the 5′UTR region. RT-PCR reaction is performed at 48° C. for 30 min, followed by 40 cycles set to 95° C., 15 s; 54° C., 30 s; and 72° C., 40 s. […]

As for `CCC[C@H](NC(=O)C1[C@H]2CCC[C@H]2CN1C(=O)[C@@H](NC(=O)[C@@H](NC(=O)c1cnccn1)C1CCCCC1)C(C)(C)C)C(=O)C(=O)NC1CC1` (stereo partly shown) [compound VX-950], in data set [1], the “HCV RNA levels during treatment” value is “significantly reduced” and the “elimination of HCV RNA from replicon cells” value is recorded as “none of them eliminated the HCV RNA”.

In the case of `CS(=O)(=O)Nc1ccc2c(c1)S(=O)(=O)N=C(c1c(O)c3ccccc3n(NC3CCC3)c1=O)N2` [compound III, N-{3-[1-(cyclobutylamino)-4-hydroxy-2-oxo-1,2-dihydroquinolin-3-yl]-1,1-dioxido-4H-1,2,4-benzothiadiazin-7-yl}methanesulfonamide], in data set [2], the concentration at 1 h turned out to be 8790 ng/g, the concentration at 12 h turned out to be 4140 ng/g and the concentration at 24 h came out at 280 ng/g. In addition, in data set [2] (24 hours after oral dosing), the “EC50 multiple: ratio of post 24-hour liver concentration over EC50 value” (from here on “EC50 multiple: ratio”) is on record as “significantly lower than that of compound I”.

In data set [2], `CS(=O)(=O)NCc1csc2c1S(=O)(=O)N=C(c1c(O)c3ccccc3n(NCC3CC3)c1=O)N2` [compound II, N-[(3-{1-[(cyclopropylmethyl)amino]-4-hydroxy-2-oxo-1,2-dihydroquinolin-3-yl}-1,1-dioxido-4H-thieno[2,3-e][1,2,4]thiadiazin-7-yl)methyl]methanesulfonamide] had a concentration at 1 h of 18900 ng/g, a concentration at 12 h of 7920 ng/g and a concentration at 24 h of 120 ng/g. Moreover, the “EC50 multiple: ratio” value in data set [2] (24 hours after oral dosing) was “significantly lower than that of compound I”.

For `CS(=O)(=O)NCc1csc2c1S(=O)(=O)N=C(c1c(O)c3ccccc3n(NC3CCC3)c1=O)N2` [compound I, N-[(3-{1-[(cyclobutyl)amino]-4-hydroxy-2-oxo-1,2-dihydro-quinolin-3-yl}-1,1-dioxo-1,4-dihydro-1λ^6-thieno[2,3-e][1,2,4]thiadiazin-7-yl)methyl]methanesulfonamide], in data set [1], the “HCV RNA levels during treatment” value is “significantly reduced” and the “elimination of HCV RNA from replicon cells” value is “none of them eliminated the HCV RNA”. Moreover, in data set [2], the concentration at 1 h was 18700 ng/g, the concentration at 12 h came out at 19200 ng/g and the concentration at 24 h came out at 2420 ng/g. In data set [2] (24 hours after oral dosing), the “liver concentration of compound I relative to those of compounds II and III” value was 8-20 times; the “EC50 multiple: ratio” value is “more than 1.800 fold”. Also, the “higher potency in the inhibition of HCV replication as compared to 1-Benzyl-4-hydroxy-3-[7-(hydroxymethyl)-1,1-dioxido-4H-thieno[2,3-e][1,2,4]thiadiazin-3-yl]quinolin-2(1H)-one” value in data set [3] was “about 100 fold”. Besides, the EC50 in data set [3] (Hepatitis C virus, read-out: 50% inhibitory concentration (EC50), HCV replicon assays) is approximately 2.5 nM.
